{"source": "patent US20240067693A1", "about": "“POLYPEPTIDES AND USES THEREOF” (MEDIMMUNE LIMITED, priority 2020, published 2024)", "key": {"[1]": {"target": "T1, human amylin receptor (calcitonin receptor co-expressed with receptor activity modifying protein, RAMP3) (hAMYR3) (Homo sapiens, UniProt O60896+P30988)", "T1 construct": "expressed in transfected cells", "T1 sequence (P30988 25-474)": "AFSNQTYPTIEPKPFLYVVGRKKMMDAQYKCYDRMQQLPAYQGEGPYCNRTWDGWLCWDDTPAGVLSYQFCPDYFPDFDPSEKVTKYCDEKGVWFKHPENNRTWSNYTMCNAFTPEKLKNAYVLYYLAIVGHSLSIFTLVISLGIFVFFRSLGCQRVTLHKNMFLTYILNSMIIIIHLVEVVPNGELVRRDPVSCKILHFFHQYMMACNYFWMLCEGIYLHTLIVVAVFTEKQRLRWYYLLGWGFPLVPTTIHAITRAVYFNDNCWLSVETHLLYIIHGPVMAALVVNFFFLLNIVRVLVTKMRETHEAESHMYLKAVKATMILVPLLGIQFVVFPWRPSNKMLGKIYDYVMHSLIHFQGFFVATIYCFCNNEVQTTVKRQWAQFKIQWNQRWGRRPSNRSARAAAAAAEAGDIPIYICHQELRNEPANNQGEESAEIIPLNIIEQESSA", "T1 sequence (O60896 24-148 partner)": "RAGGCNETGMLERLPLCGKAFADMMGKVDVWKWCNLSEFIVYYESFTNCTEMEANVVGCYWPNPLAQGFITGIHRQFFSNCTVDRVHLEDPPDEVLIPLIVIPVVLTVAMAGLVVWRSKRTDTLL", "assay": "cAMP production in 1321N1 cells with stable recombinant expression of human amylin receptor (hAMYR3)", "type": "cell-based", "conditions": "for Ratio (selectivity hAMYR vs hCTR, ratio of EC50 values at the two receptors): EC50 hCTR / EC50 hAMYR3; for EC50: cAMP, 1321N1 cells, assay buffer with 0.1% BSA, read-out: EC50 (pM) hAMYR3", "in_short": "(§1)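 Receptor-expressing cells (human receptors in 1321N1, rat receptors in HEK) incubated 30 min at room temperature with peptide in HBSS/HEPES pH 7.4, 0.1% BSA, 0.5 mM IBMX. cAMP read by HTRF; EC50 from 4-parameter fit as % of maximal amylin or calcitonin response.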"}, "[2]": {"target": "T2, human calcitonin receptor (hCTR) (Homo sapiens, UniProt P30988)", "T2 construct": "expressed in transfected cells", "T2 sequence (P30988 25-474)": "T1 sequence (P30988 25-474)", "assay": "cAMP production in 1321N1 cells with stable recombinant expression of human calcitonin receptor (hCTR)", "type": "cell-based", "conditions": "cAMP, 1321N1 cells, assay buffer with 0.1% BSA; read-out: EC50 (pM) hCTR", "in_short": "as §1"}}, "note": "Numbered stars: 1 amine (or outer) side, 2 acyl side, 3 side chain; on linkers, the order of the positions; unused ones are H or OH. Bridge positions count the residues as written; N and C are the ends. Square brackets hold non-standard residues; d marks the D form. Side chains are listed from the residue outwards. Peptide text beside a SMILES is read from it. * marks the point of attachment. C18 diacid = O=C(O)CCCCCCCCCCCCCCCCC(=O)*; γGlu = O=C(O)[C@H](CCC(=O)[*:2])N[*:1]; Aib = CC(C)(N)C(=O)O"}
{"smiles": "CC[C@@H](C)[C@@H](NC(=O)[C@@H]1CCCN1C(=O)CNC(=O)[C@H](Cc1ccccc1)NC(=O)[C@H](CC(N)=O)NC(=O)C(C)(C)NC(=O)[C@H](CO)NC(=O)[C@H](CO)NC(=O)[C@H](Cc1c[nH]cn1)NC(=O)[C@@H](NC(=O)[C@H](CC(C)C)NC(=O)[C@H](Cc1ccccc1)NC(=O)[C@H](CC(N)=O)NC(=O)[C@H](C)NC(=O)[C@H](CC(C)C)NC(=O)[C@H](CCCNC(=N)N)NC(=O)[C@H](CCC(N)=O)NC(=O)[C@@H](NC(=O)[C@H](C)NC(=O)[C@@H]1CSSC[C@H](NC(=O)[C@@H](N)CCCCNC(=O)CC[C@H](NC(=O)CCCCCCCCCCCCCCCCC(=O)O)C(=O)O)C(=O)N[C@@H](CC(N)=O)C(=O)N[C@@H]([C@@H](C)O)C(=O)N[C@@H](C)C(=O)N[C@@H]([C@@H](C)O)C(=O)N1)[C@@H](C)O)C(C)C)C(=O)N[C@@H](CC(C)C)C(=O)N1CCC[C@H]1C(=O)N1CCC[C@H]1C(=O)N[C@H](C(=O)N[C@@H](CC(N)=O)C(=O)N[C@H](C(=O)NCC(=O)N[C@@H](CO)C(=O)N[C@@H](CC(N)=O)C(=O)N[C@H](C(=O)N[C@@H](Cc1ccc(O)cc1)C(N)=O)[C@@H](C)O)C(C)C)[C@@H](C)O", "note": "[Peptide 61, K(γE-C18diacid)[CNTATC]ATQRLANFLVHSS(Aib)NFGP(dl)LPPTNVGSNTY-amide] (H-K([γGlu-C18 diacid])CNTATCATQRLANFLVHSS[Aib]NFGP[dI]LPPTNVGSNTY-NH2; disulfide 2-7; N-terminus assumed)", "values": [{"measurement": "Ratio (selectivity hAMYR vs hCTR, ratio of EC50 values at the two receptors)", "setting": "[1]", "value": 7}, {"measurement": "EC50", "setting": "[1]", "value": 99, "unit": "pM"}, {"measurement": "EC50", "setting": "[2]", "value": 654, "unit": "pM"}]}
{"smiles": "CC[C@H](C)[C@H](NC(=O)[C@@H]1CCCN1C(=O)CNC(=O)[C@H](Cc1ccccc1)NC(=O)[C@H](CC(N)=O)NC(=O)C(C)(C)NC(=O)[C@H](CO)NC(=O)[C@H](CO)NC(=O)[C@H](Cc1c[nH]cn1)NC(=O)[C@H](CO)NC(=O)[C@H](CC(C)C)NC(=O)[C@H](Cc1ccccc1)NC(=O)[C@H](CC(N)=O)NC(=O)[C@H](C)NC(=O)[C@H](CC(C)C)NC(=O)[C@H](CCCNC(=N)N)NC(=O)[C@H](CCC(N)=O)NC(=O)[C@@H](NC(=O)[C@H](C)NC(=O)[C@@H]1CSSC[C@H](NC(=O)[C@H](CCCCN)NC(=O)[C@@H](N)CCCCNC(=O)CC[C@H](NC(=O)CCCCCCCCCCCCCCCCC(=O)O)C(=O)O)C(=O)N[C@@H](CC(N)=O)C(=O)N[C@@H]([C@@H](C)O)C(=O)N[C@@H](C)C(=O)N[C@@H]([C@@H](C)O)C(=O)N1)[C@@H](C)O)C(=O)N[C@@H](CC(C)C)C(=O)N1CCC[C@H]1C(=O)N1CCC[C@H]1C(=O)N[C@H](C(=O)N[C@@H](CC(N)=O)C(=O)N[C@H](C(=O)NCC(=O)N[C@@H](CO)C(=O)N[C@@H](CC(N)=O)C(=O)N[C@H](C(=O)N[C@@H](Cc1ccc(O)cc1)C(N)=O)[C@@H](C)O)C(C)C)[C@@H](C)O", "note": "[Peptide 37, K(γE-C18diacid)K[CNTATC]ATQRLANFLSHSS(Aib)NFGPILPPTNVGSNTY-amide] (H-K([γGlu-C18 diacid])KCNTATCATQRLANFLSHSS[Aib]NFGPILPPTNVGSNTY-NH2; disulfide 3-8)", "values": [{"measurement": "Ratio (selectivity hAMYR vs hCTR, ratio of EC50 values at the two receptors)", "setting": "[1]", "value": 8}, {"measurement": "EC50", "setting": "[1]", "value": 249, "unit": "pM"}, {"measurement": "EC50", "setting": "[2]", "value": 1960, "unit": "pM"}]}
{"smiles": "CC[C@H](C)[C@H](NC(=O)[C@@H]1CCCN1C(=O)CNC(=O)[C@H](Cc1ccccc1)NC(=O)[C@H](CC(N)=O)NC(=O)C(C)(C)NC(=O)[C@H](CO)NC(=O)[C@H](CO)NC(=O)[C@H](Cc1c[nH]cn1)NC(=O)[C@H](CO)NC(=O)[C@H](CC(C)C)NC(=O)[C@H](Cc1ccccc1)NC(=O)[C@H](CC(N)=O)NC(=O)[C@H](C)NC(=O)[C@H](CC(C)C)NC(=O)[C@H](CCCNC(=N)N)NC(=O)[C@H](CCC(N)=O)NC(=O)[C@@H](NC(=O)[C@H](C)NC(=O)[C@@H]1CSSC[C@H](NC(=O)[C@H](CCCCN)NC(=O)[C@@H](N)CCCCNC(=O)CC[C@H](NC(=O)CCCCCCCCCCCCCCCCC(=O)O)C(=O)O)C(=O)N[C@@H](CC(N)=O)C(=O)N[C@@H]([C@@H](C)O)C(=O)N[C@@H](C)C(=O)N[C@@H]([C@@H](C)O)C(=O)N1)[C@@H](C)O)C(=O)N[C@@H](CC(C)C)C(=O)N1CCC[C@H]1C(=O)N1CCC[C@H]1C(=O)N[C@H](C(=O)N[C@@H](CC(N)=O)C(=O)N[C@H](C(=O)N1CCC[C@H]1C(=O)N[C@@H](CO)C(=O)N[C@@H](CC(N)=O)C(=O)N[C@H](C(=O)N[C@@H](Cc1ccc(O)cc1)C(N)=O)[C@@H](C)O)C(C)C)[C@@H](C)O", "note": "[Peptide 54, K(γE-C18diacid)K[CNTATC]ATQRLANFLSHSS(Aib)NFGPILPPTNVPSNTY-amide] (H-K([γGlu-C18 diacid])KCNTATCATQRLANFLSHSS[Aib]NFGPILPPTNVPSNTY-NH2; disulfide 3-8; N-terminus assumed)", "values": [{"measurement": "Ratio (selectivity hAMYR vs hCTR, ratio of EC50 values at the two receptors)", "setting": "[1]", "value": 0.2}, {"measurement": "EC50", "setting": "[1]", "value": 7590, "unit": "pM"}, {"measurement": "EC50", "setting": "[2]", "value": 1510, "unit": "pM"}]}
{"smiles": "CC[C@H](C)[C@H](NC(=O)[C@@H]1CCCN1C(=O)CNC(=O)[C@H](Cc1ccccc1)NC(=O)[C@H](CC(N)=O)NC(=O)CNC(=O)[C@H](CO)NC(=O)[C@H](CO)NC(=O)[C@H](Cc1c[nH]cn1)NC(=O)C(C)(C)NC(=O)[C@H](CC(C)C)NC(=O)[C@H](Cc1ccccc1)NC(=O)[C@H](CC(N)=O)NC(=O)[C@H](C)NC(=O)[C@H](CC(C)C)NC(=O)[C@H](CCCNC(=N)N)NC(=O)[C@H](CCC(N)=O)NC(=O)[C@@H](NC(=O)[C@H](C)NC(=O)[C@@H]1CSSC[C@H](NC(=O)[C@H](CCCCN)NC(=O)[C@@H](N)CCCCNC(=O)CC[C@H](NC(=O)CCCCCCCCCCCCCCCCC(=O)O)C(=O)O)C(=O)N[C@@H](CC(N)=O)C(=O)N[C@@H]([C@@H](C)O)C(=O)N[C@@H](C)C(=O)N[C@@H]([C@@H](C)O)C(=O)N1)[C@@H](C)O)C(=O)N[C@@H](CC(C)C)C(=O)N1CCC[C@H]1C(=O)N1CCC[C@H]1C(=O)N[C@H](C(=O)N[C@@H](CC(N)=O)C(=O)N[C@H](C(=O)NCC(=O)N[C@@H](CO)C(=O)N[C@@H](CC(N)=O)C(=O)N[C@H](C(=O)N[C@@H](Cc1ccc(O)cc1)C(N)=O)[C@@H](C)O)C(C)C)[C@@H](C)O", "note": "[Peptide 154] (H-K([γGlu-C18 diacid])KCNTATCATQRLANFL[Aib]HSSGNFGPILPPTNVGSNTY-NH2; disulfide 3-8; N-terminus assumed)", "values": [{"measurement": "Ratio (selectivity hAMYR vs hCTR, ratio of EC50 values at the two receptors)", "setting": "[1]", "value": 2.7}, {"measurement": "EC50", "setting": "[1]", "value": 574, "unit": "pM"}, {"measurement": "EC50", "setting": "[2]", "value": 1540, "unit": "pM"}]}
{"smiles": "CC[C@H](C)[C@H](NC(=O)[C@@H]1CCCN1C(=O)CNC(=O)[C@H](Cc1ccccc1)NC(=O)[C@H](CC(N)=O)NC(=O)[C@H](CC(N)=O)NC(=O)[C@H](CO)NC(=O)[C@H](CO)NC(=O)[C@H](Cc1c[nH]cn1)NC(=O)C(C)(C)NC(=O)[C@H](CC(C)C)NC(=O)[C@H](Cc1ccccc1)NC(=O)[C@H](CC(N)=O)NC(=O)[C@H](C)NC(=O)[C@H](CC(C)C)NC(=O)[C@H](CCCNC(=N)N)NC(=O)[C@H](CCC(N)=O)NC(=O)[C@@H](NC(=O)[C@H](C)NC(=O)[C@@H]1CSSC[C@H](NC(=O)[C@H](CCCCN)NC(=O)[C@@H](N)CCCCNC(=O)CC[C@H](NC(=O)CCCCCCCCCCCCCCCCC(=O)O)C(=O)O)C(=O)N[C@@H](CC(N)=O)C(=O)N[C@@H]([C@@H](C)O)C(=O)N[C@@H](C)C(=O)N[C@@H]([C@@H](C)O)C(=O)N1)[C@@H](C)O)C(=O)N[C@@H](CC(C)C)C(=O)N1CCC[C@H]1C(=O)N1CCC[C@H]1C(=O)N[C@H](C(=O)N[C@@H](CC(N)=O)C(=O)N[C@H](C(=O)NCC(=O)N1CCC[C@H]1C(=O)N[C@@H](CC(N)=O)C(=O)N[C@H](C(=O)N[C@@H](Cc1ccc(O)cc1)C(N)=O)[C@@H](C)O)C(C)C)[C@@H](C)O", "note": "[Peptide 148] (H-K([γGlu-C18 diacid])KCNTATCATQRLANFL[Aib]HSSNNFGPILPPTNVGPNTY-NH2; disulfide 3-8)", "values": [{"measurement": "Ratio (selectivity hAMYR vs hCTR, ratio of EC50 values at the two receptors)", "setting": "[1]", "value": 3.8}, {"measurement": "EC50", "setting": "[1]", "value": 191, "unit": "pM"}, {"measurement": "EC50", "setting": "[2]", "value": 728, "unit": "pM"}]}
